Measurements taken from ChEMBL document CHEMBL5506056, “Discovery of Novel Azaindoles as Potent and Selective PI3Kδ Inhibitors for Treatment of Multiple Sclerosis” (J Med Chem, 2024).

Key:
[1] = target: Phosphatidylinositol 4,5-bisphosphate 3-kinase catalytic subunit beta isoform (Homo sapiens, UniProt P42338); assay: Inhibition of PI3Kbeta (unknown origin) using PIP2 as substrate incubated for 1 hr by ADP-Glo assay
[2] = target: Phosphatidylinositol 4,5-bisphosphate 3-kinase catalytic subunit gamma isoform (Homo sapiens, UniProt P48736); assay: Inhibition of PI3Kgamma (unknown origin) using PIP2 as substrate incubated for 1 hr by ADP-Glo assay
[3] = target: Phosphatidylinositol 4,5-bisphosphate 3-kinase catalytic subunit alpha isoform (Homo sapiens, UniProt P42336); assay: Inhibition of PI3Kalpha (unknown origin) using PIP2 as substrate incubated for 1 hr by ADP-Glo assay
[4] = Inhibition of mouse CD3-positive T cell proliferation pre-stimulated with anti-CD3/anti-CD28 followed by compound treatment by flow cytometry
[5] = Inhibition of mouse CD3-positive T cell activation pre-stimulated with anti-CD3/anti-CD28 followed by compound treatment by flow cytometry

Chain of Phosphatidylinositol 4,5-bisphosphate 3-kinase catalytic subunit gamma isoform (P48736 whole entry, canonical isoform): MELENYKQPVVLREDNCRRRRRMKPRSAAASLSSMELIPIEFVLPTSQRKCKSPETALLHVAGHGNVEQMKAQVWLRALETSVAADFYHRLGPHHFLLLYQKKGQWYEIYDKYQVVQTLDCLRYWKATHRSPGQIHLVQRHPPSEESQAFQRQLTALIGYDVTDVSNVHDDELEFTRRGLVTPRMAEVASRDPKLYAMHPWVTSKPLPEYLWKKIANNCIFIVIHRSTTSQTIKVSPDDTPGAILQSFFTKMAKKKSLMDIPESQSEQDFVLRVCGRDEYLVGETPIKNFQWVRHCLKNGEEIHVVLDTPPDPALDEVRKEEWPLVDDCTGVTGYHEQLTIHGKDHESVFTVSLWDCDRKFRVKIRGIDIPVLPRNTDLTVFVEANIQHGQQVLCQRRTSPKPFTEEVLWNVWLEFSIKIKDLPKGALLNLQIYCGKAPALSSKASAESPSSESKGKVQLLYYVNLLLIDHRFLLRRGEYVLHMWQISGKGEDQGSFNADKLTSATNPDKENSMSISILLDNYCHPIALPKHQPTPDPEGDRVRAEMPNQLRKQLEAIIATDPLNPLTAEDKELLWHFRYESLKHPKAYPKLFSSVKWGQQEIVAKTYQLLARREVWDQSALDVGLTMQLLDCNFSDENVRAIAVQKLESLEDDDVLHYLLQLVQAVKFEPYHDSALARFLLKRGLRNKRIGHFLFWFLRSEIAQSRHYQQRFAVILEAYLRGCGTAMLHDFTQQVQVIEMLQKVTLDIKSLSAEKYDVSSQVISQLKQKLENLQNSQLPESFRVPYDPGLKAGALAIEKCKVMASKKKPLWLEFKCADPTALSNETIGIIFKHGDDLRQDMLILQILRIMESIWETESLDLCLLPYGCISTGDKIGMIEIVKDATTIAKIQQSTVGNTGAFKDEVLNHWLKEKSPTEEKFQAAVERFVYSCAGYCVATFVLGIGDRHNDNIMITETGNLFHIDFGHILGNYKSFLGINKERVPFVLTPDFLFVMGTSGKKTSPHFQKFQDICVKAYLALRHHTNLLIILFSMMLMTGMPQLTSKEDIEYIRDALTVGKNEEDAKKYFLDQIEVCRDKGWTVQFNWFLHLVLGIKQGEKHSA
Chain of Phosphatidylinositol 4,5-bisphosphate 3-kinase catalytic subunit alpha isoform (P42336 whole entry, canonical isoform): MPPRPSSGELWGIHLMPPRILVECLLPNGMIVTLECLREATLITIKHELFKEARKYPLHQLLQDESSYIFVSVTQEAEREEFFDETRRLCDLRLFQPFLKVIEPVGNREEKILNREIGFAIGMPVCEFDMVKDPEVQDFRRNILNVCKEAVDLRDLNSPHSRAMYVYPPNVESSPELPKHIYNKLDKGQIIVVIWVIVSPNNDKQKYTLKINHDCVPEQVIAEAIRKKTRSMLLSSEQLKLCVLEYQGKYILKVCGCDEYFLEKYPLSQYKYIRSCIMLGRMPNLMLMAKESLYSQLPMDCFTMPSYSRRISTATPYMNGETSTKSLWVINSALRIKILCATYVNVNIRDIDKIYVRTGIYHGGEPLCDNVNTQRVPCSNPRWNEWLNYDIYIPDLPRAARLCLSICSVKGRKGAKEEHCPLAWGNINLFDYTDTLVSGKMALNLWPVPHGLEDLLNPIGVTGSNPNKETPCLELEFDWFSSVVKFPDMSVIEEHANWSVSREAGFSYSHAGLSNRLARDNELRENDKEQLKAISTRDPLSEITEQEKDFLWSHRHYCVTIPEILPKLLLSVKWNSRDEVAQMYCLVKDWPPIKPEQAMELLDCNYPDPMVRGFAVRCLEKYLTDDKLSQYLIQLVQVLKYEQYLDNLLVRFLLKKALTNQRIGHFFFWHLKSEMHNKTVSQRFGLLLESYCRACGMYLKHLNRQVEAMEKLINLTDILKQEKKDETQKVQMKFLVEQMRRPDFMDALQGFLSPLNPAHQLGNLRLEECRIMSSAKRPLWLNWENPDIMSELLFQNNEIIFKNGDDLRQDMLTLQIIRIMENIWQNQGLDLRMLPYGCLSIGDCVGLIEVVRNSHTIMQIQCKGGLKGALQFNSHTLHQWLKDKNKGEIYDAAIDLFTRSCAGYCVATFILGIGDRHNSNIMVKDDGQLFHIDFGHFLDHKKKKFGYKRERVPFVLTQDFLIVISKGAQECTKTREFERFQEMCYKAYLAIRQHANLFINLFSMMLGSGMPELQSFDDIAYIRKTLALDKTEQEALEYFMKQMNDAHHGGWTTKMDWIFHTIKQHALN
Chain of Phosphatidylinositol 4,5-bisphosphate 3-kinase catalytic subunit beta isoform (P42338 whole entry, canonical isoform): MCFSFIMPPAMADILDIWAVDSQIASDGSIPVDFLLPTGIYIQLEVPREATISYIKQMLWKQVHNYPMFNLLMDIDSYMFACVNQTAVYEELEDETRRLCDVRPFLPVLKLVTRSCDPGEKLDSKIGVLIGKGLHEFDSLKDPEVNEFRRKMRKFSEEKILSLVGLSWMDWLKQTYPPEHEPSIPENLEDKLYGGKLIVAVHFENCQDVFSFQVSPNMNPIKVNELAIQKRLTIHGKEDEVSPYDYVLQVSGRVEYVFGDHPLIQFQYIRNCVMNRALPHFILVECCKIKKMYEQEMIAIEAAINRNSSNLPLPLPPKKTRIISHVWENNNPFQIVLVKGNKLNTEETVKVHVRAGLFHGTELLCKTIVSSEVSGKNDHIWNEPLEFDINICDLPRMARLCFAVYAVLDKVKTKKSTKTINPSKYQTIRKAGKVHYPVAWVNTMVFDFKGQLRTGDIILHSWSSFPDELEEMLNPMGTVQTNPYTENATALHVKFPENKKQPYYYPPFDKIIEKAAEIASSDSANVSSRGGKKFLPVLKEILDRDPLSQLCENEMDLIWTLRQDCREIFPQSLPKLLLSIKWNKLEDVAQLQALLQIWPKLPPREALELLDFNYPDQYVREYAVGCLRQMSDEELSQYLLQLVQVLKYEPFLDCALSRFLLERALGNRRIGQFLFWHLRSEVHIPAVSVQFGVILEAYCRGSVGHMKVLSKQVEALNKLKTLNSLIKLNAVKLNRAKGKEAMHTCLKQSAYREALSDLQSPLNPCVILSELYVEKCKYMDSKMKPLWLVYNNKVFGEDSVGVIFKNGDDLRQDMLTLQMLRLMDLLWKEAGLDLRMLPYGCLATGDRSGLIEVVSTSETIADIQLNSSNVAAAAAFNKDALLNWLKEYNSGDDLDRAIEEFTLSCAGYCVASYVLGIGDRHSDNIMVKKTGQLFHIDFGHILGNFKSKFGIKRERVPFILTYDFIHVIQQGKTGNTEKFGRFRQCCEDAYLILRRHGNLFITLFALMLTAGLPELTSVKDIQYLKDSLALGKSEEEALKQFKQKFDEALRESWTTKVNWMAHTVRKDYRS

Compound | IC50 [1] [µM] | IC50 [2] [µM] | IC50 [3] [µM] | IC50 [4] [µM] | IC50 [5] [µM]
C[C@@H](Nc1nc(N)nc(N)c1C#N)c1cn(-c2cccnc2)c2cc(Cl)cnc12 (racemic) | 2.36 | > 10 | > 10 |  | 
CC(Nc1nc(N)nc(N)c1C#N)c1cn(-c2cccnc2)c2cc(Cl)cnc12 (stereo unspecified) | > 10 | > 10 | > 10 |  | 
CC[C@H](Nc1ncnc2[nH]cnc12)c1nc2cccc(F)c2c(=O)n1-c1ccccc1 [IDELALISIB] |  |  |  | 8.97 | > 10
C[C@H](Nc1nc(N)nc(N)c1C#N)c1cn(-c2cccnc2)c2cc(Cl)cnc12 | 1.66 | > 10 | 7.03 |  | 
